Test results reported in patent US8354436B2 (4SC Discovery GmbH, priority 2011, dated 2013).
Like-named read-outs stand apart in the source and are kept apart here.

What was measured:
Assay type in all cases: cell-based
IFN-γ = IFN-γ production by PHA-stimulated human PBMC (OptEIA human IFN-g ELISA)
In short: (§1)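 Compounds tested on PHA (2 μg/ml)-stimulated human PBMC, 1×10^5 cells/well, 48 h, at 10, 1, 0.1 and 0.01 μM or semilog titration for IC50. Cytokines in culture supernatant: IL-17AA/AF by Luminex BioPlex; IL-17AA, IL-17FF, IFN-γ by separate ELISAs.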

IL-17FF = IL-17FF production by PHA-stimulated human PBMC (human IL-17F ELI-Pair)
In short: as §1

[1] = test system: PBMC from healthy human donors; experiment: T cell proliferation assay (PHA-stimulated human PBMC, BrdU ELISA); details: 48 hours
In short: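 Healthy-donor PBMC isolated on Ficoll, seeded at 1×10⁵ cells/well in RPMI with 10% dialysed FCS, stimulated with 2 μg/ml PHA in presence of test compound. Proliferation read after 48 hours by BrdU-incorporation ELISA.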

[2] = PHA-stimulated human PBMC, 48 hours, column C, read-out: IC50 (IFNγ)
[3] = PHA-stimulated human PBMC, 48 hours, column B, read-out: IC50 (IL-17FF)
[4] = PHA-stimulated human PBMC, column D, read-out: IC50 (Tcell proliferation)
[5] = human PBMC, 2 μg/ml PHA, 48 hours, read-out: C: IC50 (IFNγ)
[6] = human PBMC, 2 μg/ml PHA, 48 hours, read-out: B: IC50 (IL-17FF)
[7] = human PBMC, 2 μg/ml PHA, read-out: D: IC50 (Tcell proliferation)

IC50 (IFN-γ; [2]) [nM] | IC50 (IL-17FF; [3]) [nM] | IC50 (IFN-γ; [5]) [nM] | IC50 (IL-17FF; [6]) [nM] | Structure (SMILES) | IC50 [1, 4] [nM] | IC50 [1, 7] [nM] | IC50 (IFN-γ; Homo sapiens, PBMC, 48 h, read-out: IC50 (IFNγ)) [nM] | IC50 (IL-17FF; Homo sapiens, PBMC, 48 h, read-out: IC50 (IL-17FF)) [nM]
1000 to 10000 | 1000 to 10000 | – | – | O=C(O)c1c(-c2ccccc2Cl)noc1-c1cnn(-c2cccc(Cl)c2)c1C(F)(F)F [IB-42, 3-(2-chlorophenyl)-5-(1-(3-chlorophenyl)-5-(trifluoromethyl)-1H-pyrazol-4-yl)-isoxazole-4-carboxylic acid] | 1000 to 10000 | – | – | –
10 to 100 | 10 to 100 | – | – | COC(=O)c1c(-c2c(F)cccc2Cl)noc1-c1cnn(-c2cccc(NC(C)=O)c2)c1C(F)(F)F [IB-89, 5-(1-(3-acetamidophenyl)-5-(trifluoromethyl)-1H-pyrazol-4-yl)-3-(2-chloro-6-fluorophenyl)isoxazole-4-carboxylate] | 100 to 1000 | – | – | –
100 to 1000 | 10 to 100 | – | – | CCOC(=O)c1c(-c2c(Cl)cncc2Cl)noc1-c1cnn(-c2cccnc2)c1C(F)(F)F [IB-12, ethyl 3-(3,5-dichloropyridin-4-yl)-5-(1-(pyridin-3-yl)-5-(trifluoromethyl)-1H-pyrazol-4-yl)isoxazole-4-carboxylate] | 100 to 1000 | – | – | –
1000 to 10000 | 100 to 1000 | – | – | CCOC(=O)c1c(-c2c(Cl)cncc2Cl)noc1-c1cnn(-c2ccccc2Cl)c1C(F)(F)F [IB-16, ethyl 5-(1-(2-chlorophenyl)-5-(trifluoromethyl)-1H-pyrazol-4-yl)-3-(3,5-dichloropyridin-4-yl)isoxazole-4-carboxylate] | 1000 to 10000 | – | – | –
100 to 1000 | 100 to 1000 | – | – | CCOC(=O)c1c(-c2c(Cl)cncc2Cl)noc1-c1cnn(-c2ccncc2)c1C(F)(F)F [IB-10, ethyl 3-(3,5-dichloropyridin-4-yl)-5-(1-(pyridin-4-yl)-5-(trifluoromethyl)-1H-pyrazol-4-yl)isoxazole-4-carboxylate] | 100 to 1000 | – | – | –
1000 to 10000 | 1000 to 10000 | – | – | CCOC(=O)c1c(-c2c(F)cccc2Cl)noc1-c1cnn(-c2ccc([N+](=O)[O-])cc2)c1C(F)(F)F [IB-94, ethyl 3-(2-chloro-6-fluorophenyl)-5-(1-(4-nitrophenyl)-5-(trifluoromethyl)-1H-pyrazol-4-yl)isoxazole-4-carboxylate] | 1000 to 10000 | – | – | –
10 to 100 | 10 to 100 | – | – | CCOC(=O)c1c(-c2c(Cl)cncc2Cl)noc1-c1cnn(-c2cccc(NC(C)=O)c2)c1C(F)(F)F [IB-11, ethyl 5-(1-(3-acetamidophenyl)-5-(trifluoromethyl)-1H-pyrazol-4-yl)-3-(3,5-dichloropyridin-4-yl)isoxazole-4-carboxylate] | 100 to 1000 | – | – | –
100 to 1000 | 100 to 1000 | – | – | O=C(c1c(-c2c(F)cccc2Cl)noc1-c1cnn(-c2cccc(Cl)c2)c1C(F)(F)F)N1CCOCC1 [IB-35, (3-(2-chloro-6-fluorophenyl)-5-(1-(3-chlorophenyl)-5-(trifluoromethyl)-1H-pyrazol-4-yl)isoxazol-4-yl)(morpholino)methanone] | 1000 to 10000 | – | – | –

Second part, the compound before the results:

Structure (SMILES) | IC50 (IFN-γ; [2]) [nM] | IC50 (IL-17FF; [3]) [nM] | IC50 (IFN-γ; [5]) [nM] | IC50 (IL-17FF; [6]) [nM] | IC50 [1, 4] [nM] | IC50 [1, 7] [nM] | IC50 (IFN-γ; Homo sapiens, PBMC, 48 h, read-out: IC50 (IFNγ)) [nM] | IC50 (IL-17FF; Homo sapiens, PBMC, 48 h, read-out: IC50 (IL-17FF)) [nM]
Fc1cccc(Cl)c1-c1noc(-c2cnn(-c3cccc(Cl)c3)c2C(F)(F)F)c1-c1cnco1 [Example 8, 3-(2-chloro-6-fluorophenyl)-5-(1-(3-chlorophenyl)-5-(trifluoromethyl)-1H-pyrazol-4-yl)-4-(oxazol-5-yl)isoxazole] | – | – | < 10 | < 10 | – | < 10 | – | –
Cc1nnc(-c2c(-c3c(F)cccc3Cl)noc2-c2cnn(-c3ccccn3)c2C(F)(F)F)s1 [Example B-27, 3-(2-chloro-6-fluorophenyl)-4-(5-methyl-1,3,4-thiadiazol-2-yl)-5-(1-(pyridin-2-yl)-5-(trifluoromethyl)-1H-pyrazol-4-yl)isoxazole] | – | – | 10 to 100 | 10 to 100 | – | 10 to 100 | – | –
CCOC(=O)c1c(-c2c(F)cccc2Cl)noc1-c1cnn(-c2ccccc2Cl)c1C(F)(F)F [IB-33, ethyl 3-(2-chloro-6-fluorophenyl)-5-(1-(2-chlorophenyl)-5-(trifluoromethyl)-1H-pyrazol-4-yl)isoxazole-4-carboxylate] | – | – | – | – | 100 to 1000 | – | 100 to 1000 | 100 to 1000
COC(=O)c1c(-c2c(F)cccc2Cl)noc1-c1cnn(-c2cc(C)nc(C)n2)c1C(F)(F)F [Example I-119, methyl 3-(2-chloro-6-fluorophenyl)-5-(1-(2,6-dimethylpyrimidin-4-yl)-5-(trifluoromethyl)-1H-pyrazol-4-yl)isoxazole-4-carboxylate] | 100 to 1000 | 100 to 1000 | – | – | 100 to 1000 | – | – | –
Cc1nnc(-c2c(-c3c(F)cccc3Cl)noc2-c2cnn(-c3cccnc3)c2C(F)(F)F)s1 [Example B-21, 3-(2-chloro-6-fluorophenyl)-4-(5-methyl-1,3,4-thiadiazol-2-yl)-5-(1-(pyridin-3-yl)-5-(trifluoromethyl)-1H-pyrazol-4-yl)isoxazole] | – | – | 10 to 100 | 10 to 100 | – | 10 to 100 | – | –
CON(C)C(=O)c1c(-c2c(F)cccc2Cl)noc1-c1cnn(-c2cccc(F)c2)c1C(F)(F)F [Example I-135, 3-(2-chloro-6-fluorophenyl)-5-(1-(3-fluorophenyl)-5-(trifluoromethyl)-1H-pyrazol-4-yl)-N-methoxy-N-methylisoxazole-4-carboxamide] | 100 to 1000 | 100 to 1000 | – | – | 100 to 1000 | – | – | –
COC(=O)c1c(-c2ccccc2)noc1-c1cnn(-c2ccccc2F)c1C(F)(F)F [Example I-61, methyl 5-(1-(2-fluorophenyl)-5-(trifluoromethyl)-1H-pyrazol-4-yl)-3-phenylisoxazole-4-carboxylate] | 1000 to 10000 | 1000 to 10000 | – | – | 1000 to 10000 | – | – | –
COC(=O)c1c(-c2c(F)cccc2Cl)noc1-c1cnn(-c2ccccc2F)c1C(F)(F)F [Example I-1, methyl 3-(2-chloro-6-fluorophenyl)-5-(1-(2-fluorophenyl)-5-(trifluoromethyl)-1H-pyrazol-4-yl)isoxazole-4-carboxylate] | < 10 | 10 to 100 | – | – | 10 to 100 | – | – | –
NNC(=O)c1c(-c2c(F)cccc2Cl)noc1-c1cnn(-c2cccc(F)c2)c1C(F)(F)F [Example I-133, 3-(2-chloro-6-fluorophenyl)-5-(1-(3-fluorophenyl)-5-(trifluoromethyl)-1H-pyrazol-4-yl)isoxazole-4-carbohydrazide] | 1000 to 10000 | 1000 to 10000 | – | – | 1000 to 10000 | – | – | –
CC(C)OC(=O)c1c(-c2c(F)cccc2Cl)noc1-c1cnn(-c2ccccc2F)c1C(F)(F)F [Example I-43, i-Propyl 3-(2-chloro-6-fluorophenyl)-5-[1-(2-fluorophenyl)-5-(trifluoromethyl)-1H-pyrazol-4-yl]isoxazole-4-carboxylate] | 10 to 100 | 100 to 1000 | – | – | 10 to 100 | – | – | –
CNC(=O)c1c(-c2c(F)cccc2Cl)noc1-c1cnn(-c2ccc(F)cc2)c1C(F)(F)F [Example I-55, 3-(2-chloro-6-fluorophenyl)-5-(1-(4-fluorophenyl)-5-(trifluoromethyl)-1H-pyrazol-4-yl)-N-methylisoxazole-4-carboxamide] | 100 to 1000 | 100 to 1000 | – | – | 100 to 1000 | – | – | –
COC(=O)c1c(-c2c(F)cccc2Cl)noc1-c1cnn(-c2ccc(S(C)(=O)=O)cc2)c1C(F)(F)F [Example I-85, methyl 3-(2-chloro-6-fluorophenyl)-5-(1-(4-(methylsulfonyl)phenyl)-5-(trifluoromethyl)-1H-pyrazol-4-yl)isoxazole-4-carboxylate] | 1000 to 10000 | 1000 to 10000 | – | – | 1000 to 10000 | – | – | –
O=C(c1c(-c2c(F)cccc2Cl)noc1-c1cnn(-c2cccc(Cl)c2)c1C(F)(F)F)N1CCCO1 [Example I-132, (3-(2-chloro-6-fluorophenyl)-5-(1-(3-chlorophenyl)-5-(trifluoromethyl)-1H-pyrazol-4-yl)isoxazol-4-yl)(isoxazolidin-2-yl)methanone] | < 10 | 10 to 100 | – | – | 10 to 100 | – | – | –
COC(=O)c1c(-c2c(F)cccc2Cl)noc1-c1cnn(-c2cccc(Cl)c2)c1 [Example I-115, methyl 3-(2-chloro-6-fluorophenyl)-5-(1-(3-chlorophenyl)-1H-pyrazol-4-yl)isoxazole-4-carboxylate] | 1000 to 10000 | 1000 to 10000 | – | – | 1000 to 10000 | – | – | –
CCOC(=O)c1c(-c2c(F)cccc2Cl)noc1-c1cnn(-c2ccccc2F)c1C(F)(F)F [Example I-42, Ethyl 3-(2-chloro-6-fluorophenyl)-5-[1-(2-fluorophenyl)-5-(trifluoromethyl)-1H-pyrazol-4-yl]isoxazole-4-carboxylate] | < 10 | 10 to 100 | – | – | 10 to 100 | – | – | –
Nc1c(-c2c(F)cccc2Cl)noc1-c1cnn(-c2cccc(F)c2)c1C(F)(F)F [Example I-117, 3-(2-chloro-6-fluorophenyl)-5-(1-(3-fluorophenyl)-5-(trifluoromethyl)-1H-pyrazol-4-yl)isoxazol-4-amine] | 100 to 1000 | 100 to 1000 | – | – | 100 to 1000 | – | – | –
Cc1csc(-c2c(-c3c(F)cccc3Cl)noc2-c2cnn(-c3cccc(Cl)c3)c2C(F)(F)F)n1 [Example 4] | – | – | < 10 | < 10 | – | < 10 | – | –
CCOC(=O)c1c(-c2ccc(Cl)cc2Cl)noc1-c1cnn(-c2cccc(F)c2)c1C(F)(F)F [Example I-112, ethyl 3-(2,4-dichlorophenyl)-5-(1-(3-fluorophenyl)-5-(trifluoromethyl)-1H-pyrazol-4-yl)isoxazole-4-carboxylate] | 10 to 100 | 100 to 1000 | – | – | 100 to 1000 | – | – | –
